The test system of data set [1] is L615 transplanted tumor. The data set can be described thus: Growth of transplanted tumor in mice. Particulars: intraperitoneally, sacrificed on the 12th day. The format is in vivo. As for the experimental part: Male mice, weight 20-22 g, were used in the experiment. 1×10^7 tumor cells were injected to mouse and other drugs injected intraperitoneally began second day. All mice were sacrificed on the 12th day, isolated the tumor and weighed and calculated the inhibition rate of tumor weight.
The effect of other drugs and HHT on the growth of animal transplanted tumor as illustrated by the Table 6.20 mg/kg of other drugs could inhibit the growth of L615 transplanted tumor.

Data set [2] in a line: Toxic dose for mice (LD50). The format is in vivo.

Molecules are shown by their SMILES.

Consider `COC(=O)C[C@](O)(CCCC(C)(C)O)C(=O)O[C@@H]1C(OC)=C[C@]23CCCN2CCc2cc4c(cc2[C@H]13)OCO4` [HHT, Homoharringtonine], for which, in data set [1], the “Inhibition (%) of transplanted tumor (tumor weight)” value came to 68 ± 7.2%. Further, the mice died entry in data set [2] (38 normal mice, 2 mg/kg/day×5, observation period of 5 days) is “about 50%”. Besides, the median lethal dose (LD50) – broadly, the dose at which mortality reaches 50% – in data set [2] (mouse, in vivo, ip, mice, I.P.) was determined as 3.17 ± 0.19 mg/kg.

The values are drawn from patent US20070059385A1, “Safe pharmaceutical composition for treating and preventing cancer and method of use” (priority 2005, published 2007).
